According to patent US8598126B2, “Peptides for inhibiting the HPV-E6 oncoprotein” (priority 2008, dated 2013):

Legend:
[1] = tested on: HPV16-positive SiHa cells; assay: Clonogenic survival assay, SiHa; type: cell-based; details: stable expression
Excerpt: HPV16-positive cell lines SiHa and MRI-H-186, HPV18-positive HeLa cells and the HPV-negative osteosarcoma cell line U-2 OS were transfected with peptide expression vectors which allowed for hygromcyin B selection (pCEP4, Invitrogen). After 6-7 days of selection, cells were fixed and stained with formaldehyde-crystal violet solution.

[2] = tested on: HPV16-positive CaSki cells; assay: Clonogenic survival assay, CaSki; type: cell-based; details: stable expression
HPV16 E6 = HPV16 E6 (Human papillomavirus type 16, UniProt P03126); details: FIG. 1, solubility-optimized versions and mutants
Sequence of HPV16 E6 (P03126 whole entry): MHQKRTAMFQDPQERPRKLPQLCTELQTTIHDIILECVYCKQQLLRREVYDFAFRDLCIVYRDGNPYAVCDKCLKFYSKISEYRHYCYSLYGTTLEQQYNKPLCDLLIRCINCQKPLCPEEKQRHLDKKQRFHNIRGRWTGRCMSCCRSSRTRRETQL

| Substance | growth in clonogenic survival assay [1] | growth in clonogenic survival assay [2] | activity (binding to HPV16 E6) of pep 11 variants and mutants (HPV16 E6) |
| --- | --- | --- | --- |
| pep11**m (EYNSNCSCIACIGLI; E6 pep11*) | showed no effect | showed no effect | inactive |
| E6AP peptide: E6 binding consensus motif within E6AP (SEQ ID NO: 9) (KEKEEYNSNSSSIASIGLI; E6 pep11*) [reference compound] | showed no effect | showed no effect |  |
